These results are taken from paper PMC11474200, “Probing the nucleobase selectivity of RNA polymerases with dual-coding substrates” (The Journal of Biological Chemistry, 2024).

Like-named read-outs stand apart in the source and are kept apart here.

Assay type in all cases: biochemical
Assay [1] concerns the target T1, Mt-DdRP (Homo sapiens, UniProt O00411).
T1 construct: gene POLRMT; expressed in E. coli from pRP009, Ni-, heparin and S-sepharose purified; in assembled elongation complex
The assay can be described thus: single-nucleotide addition, denaturing PAGE. As to conditions: elongation complex, 100 μM analog, 1 min, 10 mM MgCl2, pH 7.5, 25 °C.

For assay [2], the target named is T2, Ec-DdRP (Escherichia coli, UniProt P0A8T7+P0A8V2).
T2 construct: gene rpoB; multisubunit RNAP without added sigma, in assembled elongation complex; expressed in E. coli T7 Express from pVS10, Ni-, heparin and Q-sepharose purified; with DNA-directed RNA polymerase subunit alpha; DNA-directed RNA polymerase subunit omega
T2 sequence (P0A7Z4 whole entry): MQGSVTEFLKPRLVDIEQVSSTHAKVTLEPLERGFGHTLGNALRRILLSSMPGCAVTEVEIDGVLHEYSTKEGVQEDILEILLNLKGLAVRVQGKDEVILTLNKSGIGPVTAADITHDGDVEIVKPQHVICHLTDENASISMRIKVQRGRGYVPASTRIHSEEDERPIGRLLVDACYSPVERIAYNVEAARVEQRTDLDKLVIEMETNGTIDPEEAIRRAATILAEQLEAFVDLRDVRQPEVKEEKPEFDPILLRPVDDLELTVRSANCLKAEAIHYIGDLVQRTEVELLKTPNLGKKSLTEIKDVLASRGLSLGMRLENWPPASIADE
T2 sequence (P0A8T7 whole entry): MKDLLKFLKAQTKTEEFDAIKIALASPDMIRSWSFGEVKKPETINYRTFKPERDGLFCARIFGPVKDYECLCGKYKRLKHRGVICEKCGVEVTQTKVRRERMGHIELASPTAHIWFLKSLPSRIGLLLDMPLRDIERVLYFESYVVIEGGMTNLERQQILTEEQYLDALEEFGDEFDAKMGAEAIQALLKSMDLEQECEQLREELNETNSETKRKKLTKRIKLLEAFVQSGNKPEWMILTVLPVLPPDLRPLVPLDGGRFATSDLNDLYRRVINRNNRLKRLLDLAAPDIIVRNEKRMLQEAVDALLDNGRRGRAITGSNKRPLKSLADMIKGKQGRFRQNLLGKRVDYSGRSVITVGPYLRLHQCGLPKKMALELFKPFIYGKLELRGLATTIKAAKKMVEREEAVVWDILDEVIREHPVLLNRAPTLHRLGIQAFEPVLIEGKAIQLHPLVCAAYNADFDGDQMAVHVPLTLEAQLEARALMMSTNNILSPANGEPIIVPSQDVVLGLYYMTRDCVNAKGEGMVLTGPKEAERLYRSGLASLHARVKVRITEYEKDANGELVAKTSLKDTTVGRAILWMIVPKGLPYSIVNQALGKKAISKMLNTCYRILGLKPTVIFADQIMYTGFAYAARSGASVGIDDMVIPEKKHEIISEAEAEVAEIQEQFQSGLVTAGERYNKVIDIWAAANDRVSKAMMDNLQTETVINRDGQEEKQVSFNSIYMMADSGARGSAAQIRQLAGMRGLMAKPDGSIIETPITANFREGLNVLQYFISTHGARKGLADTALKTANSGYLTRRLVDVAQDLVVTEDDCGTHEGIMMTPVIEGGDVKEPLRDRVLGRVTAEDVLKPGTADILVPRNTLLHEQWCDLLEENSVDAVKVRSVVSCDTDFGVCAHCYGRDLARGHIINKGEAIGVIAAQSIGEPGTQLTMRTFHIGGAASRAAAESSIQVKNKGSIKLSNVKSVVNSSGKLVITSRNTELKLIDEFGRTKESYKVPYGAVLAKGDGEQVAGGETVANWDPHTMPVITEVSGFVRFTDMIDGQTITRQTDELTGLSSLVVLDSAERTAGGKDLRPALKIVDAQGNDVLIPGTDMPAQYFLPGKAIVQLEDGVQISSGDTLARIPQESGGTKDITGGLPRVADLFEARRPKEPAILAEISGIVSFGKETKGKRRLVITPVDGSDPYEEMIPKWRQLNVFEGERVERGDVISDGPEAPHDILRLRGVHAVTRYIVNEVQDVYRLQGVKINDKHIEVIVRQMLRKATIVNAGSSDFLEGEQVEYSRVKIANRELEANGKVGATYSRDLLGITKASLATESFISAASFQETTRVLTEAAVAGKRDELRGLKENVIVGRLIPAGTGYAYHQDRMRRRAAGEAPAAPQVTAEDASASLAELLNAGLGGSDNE
T2 sequence (P0A8V2 whole entry): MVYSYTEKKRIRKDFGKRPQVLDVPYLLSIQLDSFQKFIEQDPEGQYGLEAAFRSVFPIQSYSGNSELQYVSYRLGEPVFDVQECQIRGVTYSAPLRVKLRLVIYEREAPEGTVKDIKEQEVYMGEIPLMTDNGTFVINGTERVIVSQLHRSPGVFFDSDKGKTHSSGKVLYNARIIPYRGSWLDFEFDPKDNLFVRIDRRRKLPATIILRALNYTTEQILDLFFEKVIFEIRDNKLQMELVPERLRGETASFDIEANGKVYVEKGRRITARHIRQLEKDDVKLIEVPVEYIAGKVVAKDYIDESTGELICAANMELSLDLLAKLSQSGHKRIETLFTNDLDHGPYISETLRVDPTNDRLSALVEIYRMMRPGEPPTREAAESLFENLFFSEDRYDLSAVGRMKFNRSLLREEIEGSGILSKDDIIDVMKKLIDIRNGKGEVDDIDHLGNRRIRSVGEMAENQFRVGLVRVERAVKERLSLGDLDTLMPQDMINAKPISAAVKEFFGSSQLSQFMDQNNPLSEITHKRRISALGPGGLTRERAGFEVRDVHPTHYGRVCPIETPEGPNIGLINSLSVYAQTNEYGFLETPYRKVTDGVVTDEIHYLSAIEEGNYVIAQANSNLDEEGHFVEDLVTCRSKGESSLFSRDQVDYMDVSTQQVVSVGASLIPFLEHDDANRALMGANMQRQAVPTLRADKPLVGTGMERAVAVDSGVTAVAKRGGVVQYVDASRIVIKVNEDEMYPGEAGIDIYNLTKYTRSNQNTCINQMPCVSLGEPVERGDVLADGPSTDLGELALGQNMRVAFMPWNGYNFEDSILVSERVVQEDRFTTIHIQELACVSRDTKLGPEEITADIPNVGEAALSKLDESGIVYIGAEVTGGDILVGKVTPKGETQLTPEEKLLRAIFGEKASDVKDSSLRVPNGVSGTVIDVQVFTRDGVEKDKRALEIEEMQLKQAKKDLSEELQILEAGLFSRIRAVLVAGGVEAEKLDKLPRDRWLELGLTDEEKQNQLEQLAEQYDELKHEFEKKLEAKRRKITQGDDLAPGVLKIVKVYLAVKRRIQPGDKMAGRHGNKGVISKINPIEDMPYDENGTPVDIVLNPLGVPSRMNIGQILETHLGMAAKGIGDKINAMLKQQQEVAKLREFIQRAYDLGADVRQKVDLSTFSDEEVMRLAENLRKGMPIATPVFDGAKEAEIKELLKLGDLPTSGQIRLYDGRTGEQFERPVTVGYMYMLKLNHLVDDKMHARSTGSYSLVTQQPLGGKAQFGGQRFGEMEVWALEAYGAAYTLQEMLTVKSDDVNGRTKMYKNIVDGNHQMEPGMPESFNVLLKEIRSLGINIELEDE
T2 sequence (P0A800 2-91, further chain): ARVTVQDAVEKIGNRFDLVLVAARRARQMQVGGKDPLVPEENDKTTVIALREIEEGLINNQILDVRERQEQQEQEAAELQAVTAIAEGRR

Assay [3] has as its target T2, Ec-DdRP. The source holds these as a separate data set.
[4] abbreviates: elongation complex, FOR as A-substitute (incorporation rate 27 s^-1), 10 mM MgCl2, pH 7.5, 25 °C.

T1 sequence (O00411 42-1230): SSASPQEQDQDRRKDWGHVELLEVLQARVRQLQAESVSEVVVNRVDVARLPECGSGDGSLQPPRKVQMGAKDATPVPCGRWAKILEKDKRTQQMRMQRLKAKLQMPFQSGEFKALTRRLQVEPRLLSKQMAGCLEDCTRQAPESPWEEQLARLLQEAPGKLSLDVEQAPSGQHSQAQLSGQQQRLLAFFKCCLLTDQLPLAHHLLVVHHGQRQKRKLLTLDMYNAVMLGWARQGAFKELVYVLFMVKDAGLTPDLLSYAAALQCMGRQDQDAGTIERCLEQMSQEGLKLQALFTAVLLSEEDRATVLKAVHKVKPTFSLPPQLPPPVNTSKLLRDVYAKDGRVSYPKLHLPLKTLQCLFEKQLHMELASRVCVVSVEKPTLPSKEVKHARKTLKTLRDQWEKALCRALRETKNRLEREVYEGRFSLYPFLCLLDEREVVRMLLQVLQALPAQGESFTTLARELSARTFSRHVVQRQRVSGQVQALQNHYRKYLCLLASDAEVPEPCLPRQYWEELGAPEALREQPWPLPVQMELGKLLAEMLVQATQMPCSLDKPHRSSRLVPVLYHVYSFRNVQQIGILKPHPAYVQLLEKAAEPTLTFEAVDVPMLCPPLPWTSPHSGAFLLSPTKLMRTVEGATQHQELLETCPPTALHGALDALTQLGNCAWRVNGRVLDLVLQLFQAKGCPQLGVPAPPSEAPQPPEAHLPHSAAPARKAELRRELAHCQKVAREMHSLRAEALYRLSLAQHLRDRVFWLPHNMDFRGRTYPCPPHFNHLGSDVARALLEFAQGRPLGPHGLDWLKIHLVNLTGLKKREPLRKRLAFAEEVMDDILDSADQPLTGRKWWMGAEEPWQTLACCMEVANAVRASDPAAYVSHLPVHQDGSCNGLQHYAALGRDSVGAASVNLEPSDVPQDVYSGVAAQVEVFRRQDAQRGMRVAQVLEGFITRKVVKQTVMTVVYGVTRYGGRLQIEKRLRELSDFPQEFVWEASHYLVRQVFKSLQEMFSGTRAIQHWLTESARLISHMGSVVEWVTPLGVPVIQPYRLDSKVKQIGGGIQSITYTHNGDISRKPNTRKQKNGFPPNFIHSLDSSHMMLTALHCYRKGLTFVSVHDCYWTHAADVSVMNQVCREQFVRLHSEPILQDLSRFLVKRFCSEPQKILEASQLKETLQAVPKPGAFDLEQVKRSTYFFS

`NC(=O)c1[nH]nc([C@@H]2O[C@H](COP(=O)(O)OP(=O)(O)OP(=O)(O)O)[C@@H](O)[C@H]2O)c1O` (mixture of isomers) [PYR 5′-triphosphate]: the “single-nucleotide addition, denaturing PAGE” value in assay [1] (incorporated in place of uridine) is listed as “all RNAPs in our set incorporated PYR in place of uridine”.
The kon is the second-order rate constant of association. A high value points to faster complex formation. The term koff denotes a measure of how fast the partners let go of each other. A high value points to a short-lived complex. On to `Nc1ncnc2c1ncn2[C@@H]1O[C@H](COP(=O)(O)OP(=O)(O)OP(=O)(O)O)[C@@H](O)[C@H]1O` [ATP], for which, in assay [2], the kon was in the range of 1.2e+06 to 1.5e+06 M⁻¹ s⁻¹. Moreover, the koff in assay [3] was 5.6 to 19 s⁻¹.
Consider `Nc1ncnc2c([C@@H]3O[C@H](COP(=O)(O)OP(=O)(O)OP(=O)(O)O)[C@@H](O)[C@H]3O)n[nH]c12` [FOR triphosphate], for which the “single-nucleotide addition, denaturing PAGE” value in assay [1] (incorporated in place of adenine) is on record as “FOR was incorporated in place of adenine by all RNAPs in our set”. The kon in assay [2] (setting [4]) was in the range of 3.1e+06 to 6.6e+06 M⁻¹ s⁻¹. The compound further returned an off-rate constant (koff) in assay [3] (setting [4]) of 74 to 220 s⁻¹.
